The values that follow come from US7947854B2, “Bis-cationic compounds and use thereof” (The University of Sydney, priority 2003, dated 2011).

In general, MIC refers to the lowest concentration found to suppress growth. Higher therefore signals weaker potency.

Assay [1] concerns membrane-associated phospholipase B (PLB activity). In words: Radiometric assay, membrane-associated PLB activity. Type of assay: biochemical, Cryptococcus neoformans H99. As to conditions: pH 4. As for the experimental part: Fungal isolates and media. […] Isolate H99 was kindly supplied by Dr. Gary Cox (Duke University Medical Center, Durham, N.C., USA), and subcultured onto Sabouraud dextrose agar (SDA) at 30° C.
Cellular disruption to prepare membrane and cytosolic fractions. The cell pellet from the preparation of the supernatant, above, was also frozen at −70° C. After washing twice with imidazole buffer, it was disrupted in the presence of a protease inhibitor cocktail (P 8215 for fungal and yeast cells; 4-(2-aminoethyl)benzenesulfonyl fluoride hydrochloride, 100 mM, 1,10-phenanthroline, 500 mM, pepstatin A, 2.2 mM, E-64, 1.4 mM; Sigma) in a MiniBeadbeater-8 Cell Disrupter (MBB-8; Daintree Scientific, Tasmania, Australia) for three cycles of 1 min, alternating with a 1 min cooling period on ice. The homogenate was centrifuged at 14,000 g for 15 min to obtain the membrane (pellet) and the cytosolic (supernatant) fractions.
(§1) Radiometric assay method for phospholipases. Enzyme activities were measured as described previously in a final volume of 125 μL at 37° C. For the determination of secreted PLB activity, carrier dipalmitoyl phosphatidylcholine (DPPC, final concentration 800 μM) and 1,2-di[1-^14C] palmitoyl phosphatidylcholine (20,000 dpm) were dried under nitrogen and suspended in 125 mM imidazole acetate buffer (assay buffer, pH 4.0) by sonication using a Branson 450 sonifier. The reaction time was 22 min, using 1 μg total protein and PLB activity was determined by the rate of decrease of the radiolabelled PC substrate, with appearance of the label in free fatty acid. This assay also simultaneously allows for the determination of phospholipase A, C and D activities. These activities were measured by the appearance of radiolabel from PC in Lyso PC, diacylglycerol and phosphatidic acid, respectively.
All reactions were terminated by adding 0.5 mL of chloroform:methanol (2:1 v/v). The reaction products were extracted by the method as disclosed in Bligh, E. C. and W. J. Dyer. 1959 ‘A rapid method of total lipid extraction and purification.’ Can. J. Biochem. Physiol. 37:911-917, separated by TLC and quantified as previously described. In the case of PLC activity, the TLC plates were developed in petroleum ether (BP 60-80° C.): diethyl ether: acetic acid (90:15:1, v/v/v) instead of chloroform:methanol:water (65:25:4, v/v/v).
All experiments were carried out in duplicate or triplicate. The effects of pH on the various phospholipase activities were measured using 50 mM final concentration of imidazole-acetate buffer (pH range 3-5), MES buffer (pH range 6-8) and glycine buffer (pH 9-10). Controls for non-enzymic breakdown of substrates were included at all pH values. Cations, Triton X-100 and metal chelators were made up as stock solutions in water and diluted to the final concentration in the appropriate assay buffer.
Preparation of inhibitors and use in assays. The following compounds were tested (for structures, see FIG. 2): compound 1, 1,12-bis(tributylphosphonium)dodecane dibromide (Fluka AG, Buchs, Switzerland); compound 2, 1,10-bis(tributylammonium)-decane dibromide; compound 3, 1,12-bis(tributylammonium)do-decane dibromide (both synthesised in-house); compound 4, 1,10-bis(trimethylammonium)decane dibromide [“decamethonium”] (Sigma, St. Louis Mo., USA). All compounds were prepared as stock solutions of 700 μM in assay buffer containing 5 mM EDTA, which was then diluted serially with buffer to obtain solutions of 70, 7, 0.7 and 0.07 μM. In each assay, 45 μL of these solutions was used, and the final volume of 125 μL was made up of substrate, enzyme and buffer. The radiometric assay was carried out as above.

For assay [2], the system named is C. neoformans strain H99 phospholipases. Description: Inhibition of C. neoformans strain H99 phospholipases (all enzymes and activities). Type of assay: biochemical, Cryptococcus neoformans H99. As for the experimental part: as §1, with “This assay also simultaneously allows for the determination of phospholipase A, C and D activities.” left out
Secreted LPL and LPTA activities were measured simultaneously in a reaction mixture containing 1-[^14C]palmitoyl lyso-PC (25,000 dpm) and carrier lyso-PC (final concentration 200 μM) in assay buffer. The reaction time was […] with 1 μg of total protein and LPL activity was measured by the rate of loss of 1-[^14C]palmitoyl lyso-PC with release of radiolabelled fatty acids. […]
All reactions were terminated by adding 0.5 mL of chloroform:methanol (2:1 v/v). […] 37:911-917, separated by TLC and quantified as previously described. […]

Assay [3] relates to Cryptococcus neoformans ATCC 90112. In words: In vitro antifungal activity, yeasts, NCCLS M27-A. As to conditions: Cryptococcus neoformans, ATCC90112; Table 9. It counts as cell-based. From the text: (§2) The assay used for yeasts (Candida; Cryptococcus) is that of the National Committee for Clinical Laboratory Standards. 1997. Reference Method for Broth Dilution Antifungal Susceptibility Testing of Yeasts: Approved Standard. NCCLS document M27-A.Villanova, Pa., USA as published in Ghannoum, M. A., A. S. Ibrahim, Y. Fu, M. C. Shafiq, J. E Edwards, Jr. and R. S. Criddle. 1992. Susceptibility testing of Cryptococcus neoformans: A microdilution technique. J. Clin. Microbiol. 30:2881-2886.

In assay [4] the test system is Candida albicans ATCC 10231. In words: In vitro antifungal activity, yeasts, NCCLS M27-A. It counts as cell-based. The conditions noted are these: Candida albicans, ATCC10231; Table 9.
Text: as §2

Where “and” joins values, the source holds several entries; their conditions need not be identical. Equal entries are not always repeated.

On to `CCCC[P+](CCCC)(CCCC)CCCCCCCCCCCC[P+](CCCC)(CCCC)CCCC` [Compound 1, 1,12-bis(tributylphosphonium)dodecane dibromide], for which the “% Inhibition PLB, Membrane-bound Enzyme” value in assay [1] (2.5 μM), in assay [1] (25 μM) and in assay [1] (250 μM) was 0% throughout.
Regarding `CCCC[N+](CCCC)(CCCC)CCCCCCCCCCCC[N+](CCCC)(CCCC)CCCC` [Compound 3, 1,12-bis(tributylammonium)do-decane dibromide], the “enzyme (phospholipase) inhibition, in words” value in assay [2] is “inhibits”.
As for `CCCC[N+](CCCC)(CCCC)CCCCCCCCCCCC[N+](CCCC)(CCCC)CCCC` [1,12-Bis-(tributylammonium)dodecane dichloride], the MIC was 1.3 µg/mL and 2.2 µM in assay [3]; 2.6 µg/mL and 4.4 µM in assay [4].
